Source: paper PMC11243196, “Identification of Benzothiazoles Bearing 1,3,4-Thiadiazole as Antiproliferative Hybrids Targeting VEGFR-2 and BRAF Kinase: Design, Synthesis, BIO Evaluation and In Silico Study” (Molecules, 2024)
Like-named read-outs stand apart in the source and are kept apart here.

What was measured:
BRAF (V600E) = BRAF (V600E) (Homo sapiens, UniProt P15056, V600E); experiment: In vitro BRAF (V600E) kinase inhibitory assay; assay type: biochemical
VEGFR-2 = VEGFR-2 (Homo sapiens, UniProt P35968); experiment: In vitro VEGFR-2 kinase inhibitory assay; assay type: biochemical
Chain of VEGFR-2 (P35968 20-1356): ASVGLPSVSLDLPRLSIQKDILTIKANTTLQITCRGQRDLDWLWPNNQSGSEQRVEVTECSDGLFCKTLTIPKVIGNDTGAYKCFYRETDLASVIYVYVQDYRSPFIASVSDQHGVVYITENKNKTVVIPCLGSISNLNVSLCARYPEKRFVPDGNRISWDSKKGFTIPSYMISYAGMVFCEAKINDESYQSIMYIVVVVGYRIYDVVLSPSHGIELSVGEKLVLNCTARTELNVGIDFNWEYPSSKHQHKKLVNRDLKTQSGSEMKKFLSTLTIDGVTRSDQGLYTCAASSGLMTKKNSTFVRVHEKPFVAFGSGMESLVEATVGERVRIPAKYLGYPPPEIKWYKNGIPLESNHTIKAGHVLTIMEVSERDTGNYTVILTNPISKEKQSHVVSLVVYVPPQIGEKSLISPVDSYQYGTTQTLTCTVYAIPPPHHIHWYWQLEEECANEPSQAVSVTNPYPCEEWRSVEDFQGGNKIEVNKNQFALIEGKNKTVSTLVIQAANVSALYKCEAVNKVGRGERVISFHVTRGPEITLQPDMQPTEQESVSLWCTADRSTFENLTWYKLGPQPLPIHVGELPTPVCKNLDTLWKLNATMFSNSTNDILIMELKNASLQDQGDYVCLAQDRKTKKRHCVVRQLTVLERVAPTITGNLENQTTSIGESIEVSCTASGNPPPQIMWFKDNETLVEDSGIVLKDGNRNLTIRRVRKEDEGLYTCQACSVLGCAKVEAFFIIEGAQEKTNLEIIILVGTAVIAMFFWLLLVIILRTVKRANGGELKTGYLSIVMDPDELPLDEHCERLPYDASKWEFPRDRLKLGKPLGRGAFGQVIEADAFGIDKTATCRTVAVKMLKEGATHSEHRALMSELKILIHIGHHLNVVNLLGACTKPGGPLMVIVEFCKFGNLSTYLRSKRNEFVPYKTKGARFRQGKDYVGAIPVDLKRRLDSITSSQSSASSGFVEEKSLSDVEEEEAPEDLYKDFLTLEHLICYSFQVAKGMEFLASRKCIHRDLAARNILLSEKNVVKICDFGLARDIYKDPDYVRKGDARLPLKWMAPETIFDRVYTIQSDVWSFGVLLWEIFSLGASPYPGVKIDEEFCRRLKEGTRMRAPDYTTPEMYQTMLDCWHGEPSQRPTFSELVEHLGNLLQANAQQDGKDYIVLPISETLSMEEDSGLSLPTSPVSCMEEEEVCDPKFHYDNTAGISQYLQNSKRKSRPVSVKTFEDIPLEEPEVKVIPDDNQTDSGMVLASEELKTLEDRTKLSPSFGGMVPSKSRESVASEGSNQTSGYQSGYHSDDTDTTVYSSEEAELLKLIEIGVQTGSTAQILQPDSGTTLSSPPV
Procedure: […]. The in vitro assays were carried out as previously described.

MCF-7 = experiment: MTT antiproliferative assay, MCF-7; assay type: cell-based; details: Homo sapiens, MCF7; breast cancer MCF-7, MTT
HCT-116 = experiment: MTT antiproliferative assay, HCT-116; assay type: cell-based; details: Homo sapiens, HCT-116, read-out: IC50 (µM) HCT-116
WI-38 cells = experiment: Cytotoxicity against normal human cells, WI-38; assay type: cell-based; details: normal lung cell line WI-38
[1] = test system: HePG-2, HCT-116 and MCF-7 cell lines; experiment: MTT antiproliferative assay, range over the three cancer cell lines; assay type: cell-based; details: Homo sapiens
Procedure: Sorafenib was used as a positive control medication.
As previously documented, the in vitro anticancer efficacy of the produced hybrids was evaluated using an MTT test. The used cell lines was bought from Vacsera (Giza, Egypt).

HePG-2 = experiment: MTT antiproliferative assay, HePG-2; assay type: cell-based; details: Homo sapiens, HepG2; hepatocellular carcinoma HePG-2, MTT
MCF-7 cells [2] = experiment: Annexin V-FITC/PI apoptosis detection; assay type: cell-based, human; details: 24 h, untreated control 0.89%
Text: The level of apoptosis was quantified utilizing the MCF-7 cell lines and Annexin V-FITC/PI apoptosis detection kit, as documented in the literature.

MCF-7 cells [3] = experiment: Cell cycle analysis by DNA flow cytometry (PI); assay type: cell-based, human
Procedure: To ascertain the precise cell cycle phase at which our highly promising chemical 4f causes the MCF7 breast cancer cells to cease their progression, we conducted cell cycle analysis and apoptotic experiments utilizing DNA flow cytometry.
As previously documented, the cell cycle study was conducted on the MCF-7 cell lines, stained with PI and examined using a Calibur flow cytometer.

VEGFR-2 in MCF-7 cells = test system: VEGFR-2 in MCF-7 cells; parameters: method as in PMID 32045054; details: cited from earlier work
PDGFR-β = test system: PDGFR-β; parameters: method as in PMID 32045054; details: read-out: IC50 against PDGFR-β; cited from earlier work
FGFR-1 = test system: FGFR-1; parameters: method as in PMID 32045054; details: read-out: IC50 against FGFR-1; cited from earlier work
BRAFV600 = details: read-out: IC50 against BRAFV600; cited from earlier work
CRAF = details: read-out: IC50 against CRAF; cited from earlier work
BRAF^V600E = test system: BRAF^V600E; parameters: method as in PMID 23906342; details: read-out: IC50 against BRAF^V600E; cited from earlier work
[4] = one range for the group 4a, 4f, 4l, 4r over three cancer cell lines, read-out: IC50 values ranging, against three cancer cell lines
[5] = read-out: IC50 range of the compound over the cancer cell lines
[6] = range over HePG-2, HCT-116, MCF-7, read-out: IC50 range of the compound over the cancer cell lines

Chain of BRAF (V600E) (P15056 whole entry V600E): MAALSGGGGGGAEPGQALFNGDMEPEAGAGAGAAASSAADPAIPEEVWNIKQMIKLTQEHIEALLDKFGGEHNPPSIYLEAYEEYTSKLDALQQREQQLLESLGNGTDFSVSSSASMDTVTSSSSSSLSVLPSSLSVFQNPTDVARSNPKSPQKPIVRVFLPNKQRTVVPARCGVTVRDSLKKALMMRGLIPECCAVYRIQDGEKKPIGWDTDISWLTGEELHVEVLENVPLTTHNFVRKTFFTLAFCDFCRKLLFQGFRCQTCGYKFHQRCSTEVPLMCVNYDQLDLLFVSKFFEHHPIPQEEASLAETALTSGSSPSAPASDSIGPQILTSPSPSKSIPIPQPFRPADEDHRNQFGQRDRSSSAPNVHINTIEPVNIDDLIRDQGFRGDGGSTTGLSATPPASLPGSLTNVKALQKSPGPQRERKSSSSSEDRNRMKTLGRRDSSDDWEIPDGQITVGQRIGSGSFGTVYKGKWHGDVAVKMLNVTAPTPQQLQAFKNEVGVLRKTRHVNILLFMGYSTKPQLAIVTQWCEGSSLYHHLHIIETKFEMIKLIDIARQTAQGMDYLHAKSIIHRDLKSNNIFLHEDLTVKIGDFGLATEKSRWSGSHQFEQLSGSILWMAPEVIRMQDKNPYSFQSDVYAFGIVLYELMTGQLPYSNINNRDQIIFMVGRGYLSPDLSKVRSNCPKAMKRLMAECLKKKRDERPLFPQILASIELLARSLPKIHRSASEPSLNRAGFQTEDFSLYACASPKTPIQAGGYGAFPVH

| SMILES | IC50 (MCF-7) [µM] | IC50 (HCT-116) [µM] | IC50 (WI-38 cells) [µM] | IC50 (HePG-2) [µM] | IC50 [1, 6] [µM] | also measured |
| --- | --- | --- | --- | --- | --- | --- |
| O=C(CSc1nnc(NC(=O)Nc2ccccc2)s1)Nc1nc2ccccc2s1 [4a, N-(Benzo[d]thiazol-2-yl)-2-((5-(3-phenylureido)-1,3,4-thiadiazol-2-yl)thio)acetamide] | 5.91 ± 0.3 | 9.94 ± 0.8 | 66.2 ± 3.5 | 12.9 ± 0.9 | – | IC50 (BRAF (V600E)): 0.677 µM; IC50 (VEGFR-2): 0.342 µM; melting point: 273 to 275 °C; IC50 [1, 4]: 3.58 to 15.4 µM; IC50 [1, 5]: 5.91 to 12.9 µM |
| Cc1ccc(NC(=O)Nc2nnc(SCC(=O)Nc3nc4ccccc4s3)s2)cc1 [4b, N-(Benzo[d]thiazol-2-yl)-2-((5-(3-(p-tolyl)ureido)-1,3,4-thiadiazol-2-yl)thio)acetamide] | 46.5 ± 2.6 | 61.8 ± 3.3 | 81 ± 4.2 | 48.2 ± 2.5 | 46.5 to 61.8 | – |
| COc1ccc(NC(=O)Nc2nnc(SCC(=O)Nc3nc4ccccc4s3)s2)cc1 [4c, N-(Benzo[d]thiazol-2-yl)-2-((5-(3-(4-methoxyphenyl)ureido)-1,3,4-thiadiazol-2-yl)thio)acetamide] | 54.5 ± 2.9 | 65.5 ± 3.5 | 91.3 ± 4.6 | 42.2 ± 2.6 | 42.2 to 65.5 | – |
| O=C(CSc1nnc(NC(=O)Nc2ccc(Cl)cc2)s1)Nc1nc2ccccc2s1 [4d, N-(Benzo[d]thiazol-2-yl)-2-((5-(3-(4-chlorophenyl)ureido)-1,3,4-thiadiazol-2-yl)thio)acetamide] | 33.6 ± 2 | 39.7 ± 2.3 | 89.1 ± 4.3 | 30.2 ± 2.3 | 30.2 to 33.6 | – |
| O=C(CSc1nnc(NC(=O)Nc2ccc(F)cc2)s1)Nc1nc2ccccc2s1 [4e, N-(Benzo[d]thiazol-2-yl)-2-((5-(3-(4-fluorophenyl)ureido)-1,3,4-thiadiazol-2-yl)thio)acetamide] | 67.1 ± 3.4 | 82.5 ± 4.2 | > 100 | 63.4 ± 3.4 | 63.4 to 82.5 | – |
| O=C(CSc1nnc(NC(=O)Nc2ccc(C(F)(F)F)c(Cl)c2)s1)Nc1nc2ccccc2s1 [4f, N-(Benzo[d]thiazol-2-yl)-2-((5-(3-(3-chloro-4-(trifluoromethyl)phenyl)ureido)-1,3,4-thiadiazol-2-yl)thio)acetamide] | 2.74 ± 0.1 | 6.21 ± 0.4 | 41.2 ± 2.4 | 5.05 ± 0.3 | – | IC50 (BRAF (V600E)): 0.194 µM; IC50 (VEGFR-2): 0.071 µM; proportion of apoptotic cells (early and late) (MCF-7 cells [2]): 37.83%; Cell Cycle Distribution (%) G2-M (MCF-7 cells [3]; untreated 15.85%): 12.77%; Cell Cycle Distribution (%) S (MCF-7 cells [3]; untreated 26.33%): 22.72%; Cell Cycle Distribution (%) G0-G1 (MCF-7 cells [3]; untreated 57.82%): 64.51%; IC50 [1, 4]: 3.58 to 15.4 µM; IC50 [1, 5]: 2.74 to 5.05 µM |
| Cc1ccc2nc(NC(=O)CSc3nnc(NC(=O)Nc4ccccc4)s3)sc2c1 [4g, N-(6-Methylbenzo[d]thiazol-2-yl)-2-((5-(3-phenylureido)-1,3,4-thiadiazol-2-yl)thio)acetamide] | 16.5 ± 1.2 | 19.6 ± 1.3 | 79.4 ± 4 | 22.9 ± 1.8 | 16.5 to 22.9 | – |
| Cc1ccc(NC(=O)Nc2nnc(SCC(=O)Nc3nc4ccc(C)cc4s3)s2)cc1 [4h, N-(6-Methylbenzo[d]thiazol-2-yl)-2-((5-(3-(p-tolyl)ureido)-1,3,4-thiadiazol-2-yl)thio)acetamide] | 40.6 ± 2.3 | 56.2 ± 3 | 87.8 ± 4.4 | 37.4 ± 2.5 | 37.4 to 56.2 | – |
| COc1ccc(NC(=O)Nc2nnc(SCC(=O)Nc3nc4ccc(C)cc4s3)s2)cc1 [4i, 2-((5-(3-(4-Methoxyphenyl)ureido)-1,3,4-thiadiazol-2-yl)thio)-N-(6-methylbenzo[d]thiazol-2-yl)acetamide] | 59.5 ± 3.1 | 76.7 ± 3.9 | 45.5 ± 2.6 | 53.1 ± 2.7 | 53.1 to 76.7 | – |
| Cc1ccc2nc(NC(=O)CSc3nnc(NC(=O)Nc4ccc(Cl)cc4)s3)sc2c1 [4j, 2-((5-(3-(4-Chlorophenyl)ureido)-1,3,4-thiadiazol-2-yl)thio)-N-(6-methylbenzo[d]thiazol-2-yl)acetamide] | 84.2 ± 4.2 | > 100 | > 100 | 78.1 ± 3.9 | – | – |
| Cc1ccc2nc(NC(=O)CSc3nnc(NC(=O)Nc4ccc(F)cc4)s3)sc2c1 [4k, 2-((5-(3-(4-Fluorophenyl)ureido)-1,3,4-thiadiazol-2-yl)thio)-N-(6-methylbenzo[d]thiazol-2-yl)acetamide] | 69.5 ± 3.5 | 92 ± 4.6 | 58.5 ± 3.2 | 64.2 ± 3.7 | – | – |
| Cc1ccc2nc(NC(=O)CSc3nnc(NC(=O)Nc4ccc(C(F)(F)F)c(Cl)c4)s3)sc2c1 [4l, 2-((5-(3-(3-Chloro-4-(trifluoromethyl)phenyl)ureido)-1,3,4-thiadiazol-2-yl)thio)-N-(6-methylbenzo[d]thiazol-2-yl)acetamide] | 9.46 ± 0.6 | 13.5 ± 1 | 47.5 ± 2.7 | 15.4 ± 1.2 | 9.46 to 15.4 | IC50 [1, 4]: 3.58 to 15.4 µM |
| O=C(CSc1nnc(NC(=O)Nc2ccccc2)s1)Nc1nc2ccc(Cl)cc2s1 [4m, N-(6-Chlorobenzo[d]thiazol-2-yl)-2-((5-(3-phenylureido)-1,3,4-thiadiazol-2-yl)thio)acetamide] | 28.9 ± 1.9 | 34.4 ± 2.1 | 74.5 ± 3.8 | 29.8 ± 2 | 28.9 to 34.4 | – |
| Cc1ccc(NC(=O)Nc2nnc(SCC(=O)Nc3nc4ccc(Cl)cc4s3)s2)cc1 [4n, N-(6-Chlorobenzo[d]thiazol-2-yl)-2-((5-(3-(p-tolyl)ureido)-1,3,4-thiadiazol-2-yl)thio)acetamide] | 36.7 ± 2.1 | 44.8 ± 2.5 | > 100 | 32.8 ± 2.4 | – | – |
| COc1ccc(NC(=O)Nc2nnc(SCC(=O)Nc3nc4ccc(Cl)cc4s3)s2)cc1 [4o, N-(6-Chlorobenzo[d]thiazol-2-yl)-2-((5-(3-(4-methoxyphenyl)ureido)-1,3,4-thiadiazol-2-yl)thio)acetamide] | 43.5 ± 2.4 | 51.6 ± 2.8 | 26.4 ± 1.8 | 35 ± 2.4 | – | – |
| O=C(CSc1nnc(NC(=O)Nc2ccc(Cl)cc2)s1)Nc1nc2ccc(Cl)cc2s1 [4p, N-(6-Chlorobenzo[d]thiazol-2-yl)-2-((5-(3-(4-chlorophenyl)ureido)-1,3,4-thiadiazol-2-yl)thio)acetamide] | 62.6 ± 3.2 | 71.3 ± 3.7 | 94.1 ± 4.9 | 57 ± 3.1 | – | – |
| O=C(CSc1nnc(NC(=O)Nc2ccc(F)cc2)s1)Nc1nc2ccc(Cl)cc2s1 [4q, N-(6-Chlorobenzo[d]thiazol-2-yl)-2-((5-(3-(4-fluorophenyl)ureido)-1,3,4-thiadiazol-2-yl)thio)acetamide] | 21.7 ± 1.5 | 25.4 ± 1.8 | 49.7 ± 2.9 | 27.4 ± 2.2 | 21.7 to 27.4 | – |
| O=C(CSc1nnc(NC(=O)Nc2ccc(C(F)(F)F)c(Cl)c2)s1)Nc1nc2ccc(Cl)cc2s1 [4r, 2-((5-(3-(3-Chloro-4-(trifluoromethyl)phenyl)ureido)-1,3,4-thiadiazol-2-yl)thio)-N-(6-chlorobenzo[d]thiazol-2-yl)acetamide] | 3.85 ± 0.2 | 7.81 ± 0.6 | 38.8 ± 2.2 | 8.1 ± 0.6 | – | IC50 (BRAF (V600E)): 1.36 µM; IC50 (VEGFR-2): 0.794 µM; IC50 [1, 4]: 3.58 to 15.4 µM; IC50 [1, 5]: 3.85 to 8.1 µM |
| COc1cc(/C=N/NC(=O)COc2ccc(-c3nc4ccccc4s3)cc2OC)ccc1O [III] | – | – | – | – | – | inhibitory effect on VEGFR-2 in MCF-7 cells (VEGFR-2 in MCF-7 cells): 83%; IC50 (PDGFR-β): 0.08 µM; IC50 (FGFR-1): 0.19 µM |
| CNC(=O)c1cc(Oc2ccc3nc(NC(=O)Nc4ccc(Cl)c(Cl)c4)sc3c2)ccn1 [IV] | – | – | – | – | – | IC50 (BRAFV600): 0.095 µM; IC50 (CRAF): 0.015 µM |
| N#Cc1c(Oc2ccc(F)c(NC(=O)Cc3cccc(C(F)(F)F)c3)c2)ccc2nc(NC(=O)C3CC3)sc12 [TAK-632] | – | – | – | – | – | IC50 (BRAF^V600E): 0.0024 µM |
